For assay [1], the target named is T1, Streptokinase A (Streptococcus pyogenes serotype M1, UniProt P10520).
T1 sequence (P10520 whole entry): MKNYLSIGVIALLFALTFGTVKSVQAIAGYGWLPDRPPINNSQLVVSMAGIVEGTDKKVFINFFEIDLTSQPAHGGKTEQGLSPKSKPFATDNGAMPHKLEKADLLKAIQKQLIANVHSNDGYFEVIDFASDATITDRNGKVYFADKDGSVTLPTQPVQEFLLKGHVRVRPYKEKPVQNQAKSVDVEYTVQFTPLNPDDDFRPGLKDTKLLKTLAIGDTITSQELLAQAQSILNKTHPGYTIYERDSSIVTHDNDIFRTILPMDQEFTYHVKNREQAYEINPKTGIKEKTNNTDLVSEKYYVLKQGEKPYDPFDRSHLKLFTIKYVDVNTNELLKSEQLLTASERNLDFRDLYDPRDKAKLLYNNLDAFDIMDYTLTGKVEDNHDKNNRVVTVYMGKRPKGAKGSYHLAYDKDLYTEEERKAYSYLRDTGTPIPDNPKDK
As to the kind of experiment: viability-normalized secreted streptokinase activity reduction – plasminogen activation absorbance, OD405, dose response (AID 1914).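 Further: secreted streptokinase activity via plasminogen activation per viability signal from cell pellet.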 Format: functional, Streptococcus pyogenes M1 GAS.

Assay [2] deals with INS1. As to the kind of experiment: INS-1E survival protection against cytokine death – cell-based, luminescence, retest, dose response (AID 449756).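 Further: cell death triggered by IL-1 beta plus TNF-alpha plus IFN-gamma mixture; protective hits raise ATP signal compared with cytokine alone wells.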 The assay is classed as functional. The following applies: Rattus norvegicus.
Assay [3] deals with Streptococcus. In words: GAS UMAA2166 growth inhibition – luminescence, BacTiterGlo, counter-screen for streptokinase expression inhibitor project, dose response (AID 1915).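 Further: potency for reduction of bacterial viability or growth.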 Format: functional, organism-based.
Assay [4] deals with Streptococcus sp. 'group A'. As to the kind of experiment: Streptococcus pyogenes SK(-)GAS viability under kanamycin – luminescence, BacTiterGlo, confirmation, counter-screen for streptokinase expression inhibitor project, dose response (AID 1900). Format: functional, organism-based. For orientation: The purpose of a counterscreen is to sort out artefacts and off-target activity.

The target of assay [5] is T2, Caspase-3 (Homo sapiens, UniProt P42574).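 Further: Dose-response selectivity test against caspase-3 for candidate inhibitors of sentrin-specific proteases (SENPs).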
T2 sequence (P42574 whole entry): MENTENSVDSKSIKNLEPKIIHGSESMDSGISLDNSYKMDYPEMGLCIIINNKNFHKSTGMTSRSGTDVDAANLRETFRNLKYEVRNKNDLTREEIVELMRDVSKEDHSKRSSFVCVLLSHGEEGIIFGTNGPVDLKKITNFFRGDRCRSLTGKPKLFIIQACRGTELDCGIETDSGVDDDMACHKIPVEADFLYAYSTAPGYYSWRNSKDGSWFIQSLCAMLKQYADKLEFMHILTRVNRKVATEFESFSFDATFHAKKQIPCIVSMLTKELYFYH
Format: functional.

For assay [6], the target named is T3, Sentrin-specific protease 7 (Homo sapiens, UniProt Q9BQF6).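 Further: Luminescence-based dose-response confirmation of ultra-high-throughput screening hits, measuring inhibition of SENP7.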
T3 sequence (Q9BQF6 whole entry): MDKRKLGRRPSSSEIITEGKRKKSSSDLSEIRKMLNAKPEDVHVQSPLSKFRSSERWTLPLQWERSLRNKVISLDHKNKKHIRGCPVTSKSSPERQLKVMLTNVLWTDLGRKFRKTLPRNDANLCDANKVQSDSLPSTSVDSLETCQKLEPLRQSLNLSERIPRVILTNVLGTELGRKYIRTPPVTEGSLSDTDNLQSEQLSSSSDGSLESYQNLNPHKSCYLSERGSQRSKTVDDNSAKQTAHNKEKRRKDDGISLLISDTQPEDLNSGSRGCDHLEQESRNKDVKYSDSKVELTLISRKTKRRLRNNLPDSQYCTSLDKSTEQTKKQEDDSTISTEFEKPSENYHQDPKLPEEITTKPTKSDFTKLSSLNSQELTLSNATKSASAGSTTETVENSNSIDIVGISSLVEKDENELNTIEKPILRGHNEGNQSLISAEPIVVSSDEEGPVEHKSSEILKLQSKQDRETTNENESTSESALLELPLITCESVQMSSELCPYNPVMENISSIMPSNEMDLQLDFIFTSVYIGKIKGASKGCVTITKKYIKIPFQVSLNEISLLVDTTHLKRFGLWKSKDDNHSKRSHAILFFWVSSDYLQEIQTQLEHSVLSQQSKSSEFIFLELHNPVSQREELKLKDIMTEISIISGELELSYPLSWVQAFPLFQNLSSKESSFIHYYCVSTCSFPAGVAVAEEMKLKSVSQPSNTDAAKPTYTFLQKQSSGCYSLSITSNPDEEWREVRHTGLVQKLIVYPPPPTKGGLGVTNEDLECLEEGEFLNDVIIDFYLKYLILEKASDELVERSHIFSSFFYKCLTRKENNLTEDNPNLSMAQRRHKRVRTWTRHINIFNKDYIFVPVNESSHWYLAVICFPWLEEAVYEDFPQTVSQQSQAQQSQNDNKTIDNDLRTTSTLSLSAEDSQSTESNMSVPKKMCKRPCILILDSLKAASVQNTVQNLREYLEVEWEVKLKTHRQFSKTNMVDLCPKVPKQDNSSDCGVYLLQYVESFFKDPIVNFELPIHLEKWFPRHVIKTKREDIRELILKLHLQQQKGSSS
The assay is classed as functional.

Each structure is given as a SMILES string. Calls of active or inactive are those of the source.

Usually EC50 stands for the concentration that produces a half-maximal response. As a reminder, the AC50 is the concentration at which the activity in the assay is half-maximal. Broadly, the IC50 is the point on the concentration scale where inhibition reaches its midpoint. Consider `Cc1ccc(C(=O)c2c(C)oc3c2C(=O)C(=O)c2ccccc2-3)cc1`, for which the EC50 in assay [1] was > 150 µM (not active); in assay [3], 13.6 µM (active); in assay [4], 0.566 µM (active). In addition, in assay [2], the AC50 is 2.4 µM (active). Moreover, the IC50 in assay [5] is 29.1 µM (active); in assay [6], 6.7 µM (active).

Regarding `Nc1ccc(Br)c2cccnc12`, the IC50 was 10.4 µM (active) in assay [5] and 9.77 µM (active) in assay [6].

For `Cc1ccc(Nc2cc(C)nn2-c2nc(C)cc(O)n2)cc1`, the AC50 in assay [2] is 0.6 µM (active). Further, the 50% effective concentration (EC50) in assay [3] was 0.065 µM (active); in assay [4] it was < 0.06 µM (active).

For the compound `Cc1cnc(NC(=O)c2sc3ccccc3c2Cl)s1`, the IC50 in assay [5] is 6.67 µM (active); in assay [6] it was 2.6 µM (active).

Regarding `O=C1C(O)=C/C(=N\c2ccccc2O)c2ccccc21`, the EC50 in assay [1] is 132 µM (active); in assay [3], > 150 µM (not active); in assay [4] it was 3.4 µM (active). In addition, the AC50 in assay [2] is 3.26 µM (active). The IC50 in assay [5] was 8.23 µM (active); in assay [6], 5.84 µM (active).

In the case of `O=C1C(Cl)=C(NCc2cccnc2)C(=O)c2ccccc21`, the AC50 in assay [2] is 7.26 µM (active).

Regarding `CN(C)c1ncc(C2=C(Cl)C(=O)C(N3CCCC3)=C(Cl)C2=O)s1`, the EC50 is > 150 µM (not active) in assay [1], 135 µM (active) in assay [3] and 24.5 µM (active) in assay [4].

The values above are taken from ChEMBL document CHEMBL1201862, “PubChem BioAssay data set” (2004).
